What was measured:
[1] = Photo stability under iodine tungsten lamp irradiation (residual absorptivity); format: physicochemical; settings: 10 μM in acetonitrile; 6 hrs continuous irradiation, 500 W iodine tungsten lamp, 25 cm
Method: The photo stability of dyes 2a-2e, and 3a-e (with a concentration of 10 μM) prepared above was tested. Corresponding weights of dyes 2a-2e and 3a-e and their references coumarin and Nile red were weighed, and dissolved in acetonitrile (at a concentration of 10 μM) respectively. All the samples were irradiated with a Philips iodine tungsten lamp (500 W), and the distance between the lamp and the sample was set to 25 cm. An 8 cm-thick NaNO2 (60 g·L^−1) cold trap was positioned between the lamp and the sample, to eliminate heat and short-wavelength light. The irradiation was continued for 6 hrs, during which the ultraviolet fluorescence was tested every half an hour. After 6 hrs, the light stability was measured by residual absorptivity calculated based on the change in the absorption intensity at various times before and after the irradiation. […] The residual absorptivity of dyes 2a-e, and 3a-e is 2a: 93%, 2b: 92%, 2c: 95%, 2d: 91%, 2e: 97%, 3a: 93%, 3b: 92%, 3c: 94%, 3d: 93%, 3e: 92%. It can be seen that dyes 2a-2e and 3a-e have higher photo stability.

[2] = Ultraviolet-visible absorption and fluorescence emission in chloroform; format: physicochemical; settings: 10 μM in chloroform; for maximum emission wavelength (highest fluorescence intensity): excitation 380-385 nm, slit 3 nm/1.5 nm (2a-e), excitation 545-550 nm, slit 1.5 nm/3 nm (3a-e)
Method: The ultraviolet absorption and fluorescence emission of the dyes prepared above (at a concentration of 10 μM) in chloroform were tested. The horizontal ordinate is the wavelength, and the vertical ordinate is the absorbance and fluorescence intensity, respectively.
In the ultraviolet-visible absorption spectrum, dye 2a has the maximum absorption at 388 nm; and in the fluorescence spectrum, dye 2a has the highest fluorescence intensity at 457 nm, where the excitation wavelength is 380 nm, and the slit width is 3 nm/1.5 nm. In the ultraviolet-visible absorption spectrum, dye 2b has a maximum absorption wavelength of 386 nm; and in the fluorescence spectrum, dye 2b has a maximum emission wavelength of 459 nm, where the excitation wavelength is 385 nm, and the slit width is 3 nm/1.5 nm. In the ultraviolet-visible absorption spectrum, dye 2c has a maximum absorption wavelength of 385 nm; and in the fluorescence spectrum, dye 2c has a maximum emission wavelength of 455 nm, where the excitation wavelength is 380 nm, and the slit width is 3 nm/1.5 nm. In the ultraviolet-visible absorption spectrum, dye 2d has the maximum absorption at 380 nm; and in the fluorescence spectrum, dye 2d has the highest fluorescence intensity at 457 nm, where the excitation wavelength is 380 nm, and the slit width is 3 nm/1.5 nm. In the ultraviolet-visible absorption spectrum, dye 2e has a maximum absorption wavelength of 385 nm; and in the fluorescence spectrum, dye 2e has a maximum emission wavelength of 458 nm, where the excitation wavelength is 385 nm, and the slit width is 3 nm/1.5 nm. In the ultraviolet-visible absorption spectrum, dye 3a has the maximum absorption at 554 nm; and in the fluorescence spectrum, dye 3a has the highest fluorescence intensity at 604 nm, where the excitation wavelength is 550 nm, and the slit width is 1.5 nm/3 nm. In the ultraviolet-visible absorption spectrum, dye 3b has a maximum absorption wavelength of 552 nm; and in the fluorescence spectrum, dye 3b has a maximum emission wavelength of 597 nm, where the excitation wavelength is 550 nm, and the slit width is 1.5 nm/3 nm. In the ultraviolet-visible absorption spectrum, dye 3c has a maximum absorption wavelength of 552 nm; and in the fluorescence spectrum, dye 3c has a maximum emission wavelength of 621 nm, where the excitation wavelength is 550 nm, and the slit width is 1.5 nm/3 nm. In the ultraviolet-visible absorption spectrum, dye 3d has a maximum absorption wavelength of 551 nm; and in the fluorescence spectrum, dye 3d has a maximum emission wavelength of 607 nm, where the excitation wavelength is 545 nm, and the slit width is 1.5 nm/3 nm. In the ultraviolet-visible absorption spectrum, dye 3e has a maximum absorption wavelength of 553 nm; and in the fluorescence spectrum, dye 3e has a maximum emission wavelength of 585 nm, where the excitation wavelength is 550 nm, and the slit width is 1.5 nm/3 nm. The above UV absorption and fluorescence emission test methods are conventional methods.

[3] = tested on: mitochondria in HeLa cells; test: Colocalization imaging with green mitochondrial marker Mito Tracker Green FM, laser confocal microscope; format: cell-based; settings: 2 μM; for mitochondria labeling ability: red channel; for colocalization coefficient: versus Mito Tracker Green FM (100 nm)
Method: Dye 3a was formulated into a mother liquor in DMSO (dimethyl sulfoxide), and then added to a conventional cell culture medium to give a concentration of dye 3a in the cell culture medium of 2 μM. HeLa cells were co-cultured for 10 min in an incubator at saturated humidity, 37° C., and 5% CO2 (the experiment was same below). The green mitochondrial marker Mito Tracker® Green FM (100 nm) was added, and the cells were co-incubated for another 10 min, washed three times with a PBS buffer, and imaged under a laser confocal microscope. In the red channel, light of 561 nm was used for excitation, and a fluorescence signal in the range of 570-750 nm was collected. In the green channel, light of 488 nm was used for excitation, and a fluorescence signal in the range of 500-550 nm was collected.
The experiment method with dye 3b (2 μM), dye 3c (2 μM), dye 3d (2 μM), and dye 3e (2 μM) was the same with that with dye 3a, except that dye 3a was replaced.

[4] = tested on: mitochondria in HeLa cells; test: Colocalization imaging with red mitochondrial marker Mito Tracker Red CMXRos, laser confocal microscope; format: cell-based; settings: 2 μM; for mitochondria labeling ability: blue channel; for colocalization coefficient: versus Mito Tracker Red CMXRos (100 nm)
Method: To test the fluorescent labeling ability of Compound 2a compared with commercial mitochondrial markers, dye 2a was formulated into a mother liquor in DMSO (dimethyl sulfoxide), and then added to a conventional cell culture medium to give a concentration of dye 2a in the cell culture medium of 2 μM. HeLa cells were co-cultured for 10 min in an incubator at saturated humidity, 37° C., and 5% CO2 (the experiment was same below). The red mitochondrial marker Mito Tracker© Red CMXRos (100 nm) was added, and the cells were co-incubated for another 10 min, washed three times with a PBS buffer, and imaged under a laser confocal microscope. In the blue channel, light of 405 nm was used for excitation, and a fluorescence signal in the range of 410-500 nm was collected; and in the red channel, light of 561 nm was used for excitation, and a fluorescence signal in the range of 570-750 nm was collected.
The experiment method with dye 2b (2 μM), dye 2c (2 μM), dye 2d (2 μM), and dye 2e (2 μM) was the same with that with dye 2a, except that dye 2a was replaced.

Structure (SMILES) | residual absorptivity [1] [%] | maximum absorption wavelength [2] [nm] | maximum emission wavelength (highest fluorescence intensity) [2] [nm] | mitochondria labeling ability [3] | colocalization coefficient [3] | mitochondria labeling ability [4] | colocalization coefficient [4]
CCN(CC)c1ccc2nc3c4ccc(-c5ccc6c(c5)CCC(=O)N6)cc4c(=O)cc-3oc2c1 [dye 3e] | 92 | 553 | 585 | has mitochondria labeling ability | 0.92 |  | 
CCN(CC)c1ccc2c(C)c(-c3ccc(C(=O)NC)cc3)c(=O)oc2c1 [dye 2b] | 92 | 386 | 459 |  |  | have mitochondria labeling ability | 0.94
CCN(CC)c1ccc2nc3c4ccc(-c5ccc6c(c5)CC(=O)N6)cc4c(=O)cc-3oc2c1 [dye 3d] | 93 | 551 | 607 | has mitochondria labeling ability | 0.96 |  | 
CCN(CC)c1ccc2c(C)c(-c3ccc4c(c3)CC(=O)N4)c(=O)oc2c1 [dye 2d] | 91 | 380 | 457 |  |  | have mitochondria labeling ability | 0.92
CCN(CC)c1ccc2c(C)c(-c3ccc(C(N)=O)cc3)c(=O)oc2c1 [dye 2a] | 93 | 388 | 457 |  |  | has mitochondria labeling ability | 0.88
O=c1ccc2ccccc2o1 [coumarin, reference compound] | 94 |  |  |  |  |  | 
CCN(CC)c1ccc2c(C)c(-c3ccc(C(=O)N(C)C)cc3)c(=O)oc2c1 [dye 2c] | 95 | 385 | 455 |  |  | have mitochondria labeling ability | 0.88
CCN(CC)c1ccc2nc3c4ccccc4c(=O)cc-3oc2c1 [Nile Red, Nile red, reference compound] | 97 |  |  |  |  |  | 
CCN(CC)c1ccc2nc3c4ccc(-c5ccc(C(=O)N(C)C)cc5)cc4c(=O)cc-3oc2c1 [dye 3c] | 94 | 552 | 621 | has mitochondria labeling ability | 0.94 |  | 
CCN(CC)c1ccc2nc3c4ccc(-c5ccc(C(N)=O)cc5)cc4c(=O)cc-3oc2c1 [dye 3a] | 93 | 554 | 604 | has mitochondria labeling ability | 0.94 |  | 
CCN(CC)c1ccc2nc3c4ccc(-c5ccc(C(=O)NC)cc5)cc4c(=O)cc-3oc2c1 [dye 3b] | 92 | 552 | 597 | has mitochondria labeling ability | 0.88 |  | 
CCN(CC)c1ccc2c(C)c(-c3ccc4c(c3)CCC(=O)N4)c(=O)oc2c1 [dye 2e] | 97 | 385 | 458 |  |  | have mitochondria labeling ability | 0.91
